Test results as given in the supplement of paper PMC10307832.

Legend:
Experiment in all cases: relative viability (nuclei count vs DMSO), 5 days (fraction); higher = more cells survive
H3255 = test system: H3255
In short: (§1)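 Medians of duplicate plates are given as relative viability. That measure is the nuclei count in treated wells divided by the count in vehicle wells. Counts were taken on 4× images of lung cancer cell lines in 1536-well plates, 5 days after pin-tool dosing the day after seeding with one drug alone or a fixed anchor-drug dose plus five library-drug doses (not always all listed) in √10 steps.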

PC-14 = test system: PC-14
In short: as §1

NCI-H520 = test system: NCI-H520
In short: as §1

COR-L23 = test system: COR-L23
In short: as §1

CAL-12T = test system: CAL-12T
In short: as §1

HCC-15 = test system: HCC-15
In short: as §1

NCI-H2228 = test system: NCI-H2228
In short: as §1

LK-2 = test system: LK-2
In short: as §1

EKVX = test system: EKVX
In short: as §1

PC-3 [JPC-3] = test system: PC-3 [JPC-3]
In short: as §1

NCI-H1355 = test system: NCI-H1355
In short: as §1

NCI-H1734 = test system: NCI-H1734
In short: as §1

NCI-H1437 = test system: NCI-H1437
In short: as §1

NCI-H1650 = test system: NCI-H1650
In short: as §1

NCI-H2405 = test system: NCI-H2405
In short: as §1

NCI-H2342 = test system: NCI-H2342
In short: as §1

NCI-H661 = test system: NCI-H661
In short: as §1

NCI-H322M = test system: NCI-H322M
In short: as §1

HCC-827 = test system: HCC-827
In short: as §1

SW 1573 = test system: SW 1573
In short: as §1

ABC-1 = test system: ABC-1
In short: as §1

RERF-LC-KJ = test system: RERF-LC-KJ
In short: as §1

Oc1nc(-c2ccc(C(F)(F)F)cc2)nc2c1CSCC2 [XAV939] + Cc1cc(Nc2cc(N3CCN(C)CC3)nc(Sc3ccc(NC(=O)C4CC4)cc3)n2)n[nH]1 [Tozasertib] (partner 0.1 µM)
relative viability (H3255; first compound 0.08 µM): 0.699
relative viability (H3255; first compound 0.253 µM): 0.597
relative viability (H3255; first compound 0.8 µM): 0.597
relative viability (H3255; first compound 2.53 µM): 0.544
relative viability (PC-14; first compound 0.08 µM): 0.673
relative viability (PC-14; first compound 0.253 µM): 0.551
relative viability (PC-14; first compound 0.8 µM): 0.685
relative viability (PC-14; first compound 2.53 µM): 0.544
relative viability (NCI-H520; first compound 0.08 µM): 0.42
relative viability (NCI-H520; first compound 0.253 µM): 0.439
relative viability (NCI-H520; first compound 0.8 µM): 0.461
relative viability (NCI-H520; first compound 2.53 µM): 0.427
relative viability (COR-L23; first compound 0.08 µM): 0.194
relative viability (COR-L23; first compound 0.253 µM): 0.195
relative viability (COR-L23; first compound 0.8 µM): 0.225
relative viability (COR-L23; first compound 2.53 µM): 0.154
relative viability (CAL-12T; first compound 0.08 µM): 0.386
relative viability (CAL-12T; first compound 0.253 µM): 0.29
relative viability (CAL-12T; first compound 0.8 µM): 0.222
relative viability (CAL-12T; first compound 2.53 µM): 0.196
relative viability (HCC-15; first compound 0.08 µM): 0.452
relative viability (HCC-15; first compound 0.253 µM): 0.382
relative viability (HCC-15; first compound 0.8 µM): 0.394
relative viability (HCC-15; first compound 2.53 µM): 0.368
relative viability (NCI-H2228; first compound 0.08 µM): 0.31
relative viability (NCI-H2228; first compound 0.253 µM): 0.23
relative viability (NCI-H2228; first compound 0.8 µM): 0.247
relative viability (NCI-H2228; first compound 2.53 µM): 0.255
relative viability (LK-2; first compound 0.08 µM): 0.185
relative viability (LK-2; first compound 0.253 µM): 0.171
relative viability (LK-2; first compound 0.8 µM): 0.157
relative viability (LK-2; first compound 2.53 µM): 0.172
relative viability (EKVX; first compound 0.08 µM): 0.47
relative viability (EKVX; first compound 0.253 µM): 0.36
relative viability (EKVX; first compound 0.8 µM): 0.372
relative viability (EKVX; first compound 2.53 µM): 0.29
relative viability (PC-3 [JPC-3]; first compound 0.08 µM): 0.901
relative viability (PC-3 [JPC-3]; first compound 0.253 µM): 0.833
relative viability (PC-3 [JPC-3]; first compound 0.8 µM): 0.857
relative viability (PC-3 [JPC-3]; first compound 2.53 µM): 0.744
relative viability (NCI-H1355; first compound 0.08 µM): 0.715
relative viability (NCI-H1355; first compound 0.253 µM): 0.473
relative viability (NCI-H1355; first compound 0.8 µM): 0.548
relative viability (NCI-H1355; first compound 2.53 µM): 0.411
relative viability (NCI-H1734; first compound 0.08 µM): 0.243
relative viability (NCI-H1734; first compound 0.253 µM): 0.206
relative viability (NCI-H1734; first compound 0.8 µM): 0.261
relative viability (NCI-H1734; first compound 2.53 µM): 0.293
relative viability (NCI-H1437; first compound 0.08 µM): 0.419
relative viability (NCI-H1437; first compound 0.253 µM): 0.335
relative viability (NCI-H1437; first compound 0.8 µM): 0.443
relative viability (NCI-H1437; first compound 2.53 µM): 0.414
relative viability (NCI-H1650; first compound 0.08 µM): 0.471
relative viability (NCI-H1650; first compound 0.253 µM): 0.36
relative viability (NCI-H1650; first compound 0.8 µM): 0.406
relative viability (NCI-H1650; first compound 2.53 µM): 0.332
relative viability (NCI-H2405; first compound 0.08 µM): 0.805
relative viability (NCI-H2405; first compound 0.253 µM): 0.72
relative viability (NCI-H2405; first compound 0.8 µM): 0.712
relative viability (NCI-H2405; first compound 2.53 µM): 0.66
relative viability (NCI-H2342; first compound 0.08 µM): 0.592
relative viability (NCI-H2342; first compound 0.253 µM): 0.511
relative viability (NCI-H2342; first compound 0.8 µM): 0.419
relative viability (NCI-H2342; first compound 2.53 µM): 0.301
relative viability (NCI-H661; first compound 0.08 µM): 0.364
relative viability (NCI-H661; first compound 0.253 µM): 0.346
relative viability (NCI-H661; first compound 0.8 µM): 0.365
relative viability (NCI-H661; first compound 2.53 µM): 0.339
relative viability (NCI-H322M; first compound 0.08 µM): 0.553
relative viability (NCI-H322M; first compound 0.253 µM): 0.432
relative viability (NCI-H322M; first compound 0.8 µM): 0.431
relative viability (NCI-H322M; first compound 2.53 µM): 0.4
relative viability (HCC-827; first compound 0.08 µM): 0.423
relative viability (HCC-827; first compound 0.253 µM): 0.387
relative viability (HCC-827; first compound 0.8 µM): 0.414
relative viability (HCC-827; first compound 2.53 µM): 0.384
relative viability (SW 1573; first compound 0.08 µM): 0.174
relative viability (SW 1573; first compound 0.253 µM): 0.139
relative viability (SW 1573; first compound 0.8 µM): 0.211
relative viability (SW 1573; first compound 2.53 µM): 0.213
relative viability (ABC-1; first compound 0.08 µM): 0.126
relative viability (ABC-1; first compound 0.253 µM): 0.169
relative viability (ABC-1; first compound 0.8 µM): 0.166
relative viability (ABC-1; first compound 2.53 µM): 0.165
relative viability (RERF-LC-KJ; first compound 0.08 µM): 0.546
relative viability (RERF-LC-KJ; first compound 0.253 µM): 0.465
relative viability (RERF-LC-KJ; first compound 0.8 µM): 0.462
relative viability (RERF-LC-KJ; first compound 2.53 µM): 0.409
